Experimental data taken from patent US20150072969A1, “PHENYL ALKANOIC ACID DERIVATIVES AS GPR AGONISTS” (PIRAMAL ENTERPRISES LIMITED, priority 2012, published 2015).

These compounds were tested against T1, human GPR40 (Homo sapiens, UniProt O14842) (assay: Inositol phosphate accumulation assay in FFAR1 (GPR40) CHOK1 clone). Settings: GPR40 agonist activity; intracellular inositol phosphate release in CHOK1 cells stably expressing recombinant human GPR40; 1 h incubation at 37° C.
T1 construct: expressed in transfected cells
T1 sequence (O14842 whole entry): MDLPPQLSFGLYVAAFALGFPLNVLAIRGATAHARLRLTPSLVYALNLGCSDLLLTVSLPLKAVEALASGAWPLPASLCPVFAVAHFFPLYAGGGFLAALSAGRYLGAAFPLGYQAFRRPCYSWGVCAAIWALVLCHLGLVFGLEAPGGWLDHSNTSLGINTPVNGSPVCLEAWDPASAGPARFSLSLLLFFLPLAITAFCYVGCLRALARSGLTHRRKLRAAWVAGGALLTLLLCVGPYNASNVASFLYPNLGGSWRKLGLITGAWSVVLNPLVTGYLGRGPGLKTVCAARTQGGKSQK
Type: cell-based
Procedure: The inositol phosphate accumulation assay was performed to characterise the GPR40 agonist activity of the compounds of the present invention.
The assay was carried out in accordance with the method substantially as described in Diabetes, 2008, 57(8):2211-2219 and PLoS One, 2011, 6(11):e27270.
A stable FFAR1 (GPR40) CHOK1 clone was used to determine the GPR40 agonist activity of the test compounds (compounds of the present invention synthesized in the above Examples). The stable FFAR1 (GPR40) CHOK1 clone expressing recombinant human GPR40 was generated according to the procedure described herein below.
Full-length human GPR40 cDNA (Accession Number: NM_005303) was cloned into mammalian expression vector (pReceiver) and was stably transfected into (Chinese Hamster Ovary) CHOK1 cells using Amaxa technology. 2 μg of pReceiver hGPR40 were transfected into 1×10^6 CHOK1 cells in 6 well plates. The cells were split into three 100 mm cell culture plates on the second day and geneticin (800 μg/ml) was added to the cell culture on the third day. The selection medium comprising Ham's F-12 K supplemented with FBS (10%) and geneticin (800 μg/ml) was changed every three days until colonies were formed. The colonies isolated were further purified (single cell cloning) after 14 days to obtain pure isogenic single cell homogenous population of cells expressing the GPR40 receptor protein on the cell surface. GPR40 receptor expression on cell surface was measured by flow cytometry. The in-house transgenic cell line (clone) created was labeled as FFAR1 (GPR40) CHOK1 clone.
FFAR1 (GPR40) CHOK1 cells were suspended in culture medium comprising Ham's F-12 K supplemented with FBS (10%) and geneticin (800 μg/ml). Cells were seeded at a density of 2×10^4 cells per well in a 384 well tissue culture plate and cultured overnight. The medium was discarded and the cells were further resuspended in a stimulation buffer comprising HEPES (10 mM), glucose (5.5 mM), CaCl2 (1 mM), NaCl (150 mM), KCl (4.2 mM), MgCl2 (0.5 mM) and LiCl (50 mM) having a pH of 7.6. The test compounds (representative compounds of Formula (I)) 10 mM stock were prepared in DMSO and subsequently log fold dilution of the test compounds were carried out in the stimulation buffer. Various concentrations of the test compounds and the standard DMSO solution were added to each well. The plates were further incubated at 37° C., 5% CO2 incubator for 1 h. The final concentration of the test compounds in the each well varied from 1 μM to 10 μM. The DMSO concentration in the assay was 0.1% or less. After incubation, lysis reagent and anti-Tb conjugate were added to each well. The intracellular Inositol Phosphate release and accumulation in the test compounds were measured by the binding ability of the anti-Tb conjugate with the inositol phosphate inherently produced in each well as compared with the inositol phosphate coupled to dye d2 added externally to each well. The plates were then read using Perkin Elmer (Envision) plate reader and the fluorescence signal was captured. The EC50 values for the test compounds were calculated from the non linear regression sigmoidal curve graphs plotted between the concentrations of the test compounds and the fluorescence intensity.
For O=C(O)CC1(c2ccc(OCc3cccc(-c4ccc(OCC5CCOCC5)cc4Cl)c3)cc2)COC1 [Example 72, 2-(3-(4-((2′-Chloro-4′-((tetrahydro-2H-pyran-4-yl)methoxy)-[1,1′-biphenyl]-3-yl)methoxy)phenyl)oxetan-3-yl)acetic acid], the EC50 was less than 100 nM. In the case of CC1(C)CCC(C)(C)c2cc(COc3ccc(C4(CC(=O)O)COC4)cc3)ccc21 [Example 18, 2-(3-(4-((5,5,8,8-Tetramethyl-5,6,7,8-tetrahydronaphthalen-2-yl)methoxy)phenyl)oxetan-3-yl)acetic acid], the EC50 is reported as 100 to 500 nM. In the case of CSc1ccc(-c2cccc(COc3ccc(C4(CC(=O)O)COC4)cc3)c2)cc1 [Example 83, 2-(3-(4-((4′-(Methylthio)-[1,1′-biphenyl]-3-yl)methoxy)phenyl)oxetan-3-yl)acetic acid], the EC50 is reported as 100 to 500 nM. CC(=O)N1CC(CC(=O)O)(c2ccc(OCc3cccc(-c4c(C)cc(OCCCS(C)(=O)=O)cc4C)c3)cc2)C1 [Example 96, 2-(1-Acetyl-3-(4-((2′,6′-dimethyl-4′-(3-(methylsulfonyl)propoxy)-[1,1′-biphenyl]-3-yl)methoxy)phenyl)azetidin-3-yl)acetic acid] showed an EC50 greater than 500 nM. Cc1cc(OCCCS(C)(=O)=O)cc(C)c1-c1cccc(COc2ccc(C3(CC(=O)O)COC3)cc2)c1 [Example 10, 2-(3-(4-((2′,6′-Dimethyl-4′-(3-(methylsulfonyl)propoxy)-[1,1′-biphenyl]-3-yl)methoxy)phenyl)oxetan-3-yl)acetic acid] showed an EC50 of less than 100 nM. For Cc1cc(-c2cccc(COc3ccc(C4(CC(=O)O)COC4)cc3)c2)cc(C)c1OCCCS(C)(=O)=O [Example 79, 2-(3-(4-((3′,5′-Dimethyl-4′-(3-(methylsulfonyl)propoxy)-[1,1′-biphenyl]-3-yl)methoxy)phenyl)oxetan-3-yl)acetic acid], the EC50 was 100 to 500 nM. For O=C(O)CC1(c2ccc(OCc3cccc(-c4ccccc4)c3)c(F)c2)COC1 [Example 12, 2-(3-(4-([1,1′-Biphenyl]-3-ylmethoxy)-3-fluorophenyl)oxetan-3-yl)acetic acid], the EC50 was greater than 500 nM. O=C(O)CC1(c2ccc(OCc3ccc(C(F)(F)F)c(F)c3)cc2)COC1 [Example 32, 2-(3-(4-((3-Fluoro-4-(trifluoromethyl)benzyl)oxy)phenyl)oxetan-3-yl)acetic acid] showed an EC50 greater than 500 nM. Work on N#Cc1ccccc1-c1ccc(COc2ccc(C3(CC(=O)O)COC3)cc2)cc1 [Example 6, 2-(3-(4-((2′-Cyano-[1,1′-biphenyl]-4-yl)methoxy)phenyl)oxetan-3-yl)acetic acid] yielded an EC50 of 100 to 500 nM. Compound Cc1ccc(COc2ccc(C3(CC(=O)O)COC3)cc2)cc1C(F)(F)F [Example 28, 2-(3-(4-((4-Methyl-3-(trifluoromethyl)benzyl)oxy)phenyl)oxetan-3-yl)acetic acid] has an EC50 of 100 to 500 nM. Cc1cc(OCC2CCS(=O)(=O)C2)cc(C)c1-c1cccc(COc2ccc(C3(CC(=O)O)COC3)cc2)c1 (centres unmarked) [Example 53, 2-(3-(4-((4′-((1,1-Dioxidotetrahydrothiophen-3-yl)methoxy)-2′,6′-dimethyl-[1,1′-biphenyl]-3-yl)methoxy)phenyl)oxetan-3-yl)acetic acid] showed an EC50 of less than 100 nM. COc1cc(-c2cccc(COc3ccc(C4(CC(=O)O)COC4)cc3)c2)ccc1OCCCS(C)(=O)=O [Example 81, 2-(3-(4-((3′-Methoxy-4′-(3-(methylsulfonyl)propoxy)-[1,1′-biphenyl]-3-yl)methoxy)phenyl)oxetan-3-yl)acetic acid] was tested, and the EC50 was greater than 500 nM. In the case of Cc1cc(OCC2CCOC2)cc(C)c1-c1cccc(COc2ccc(C3(CC(=O)O)COC3)cc2)c1 (centres unmarked) [Example 41, 2-(3-(4-((2′,6′-Dimethyl-4′-((tetrahydrofuran-3-yl)methoxy)-[1,1′-biphenyl]-3-yl)methoxy)phenyl)oxetan-3-yl)acetic acid], the EC50 is reported as less than 100 nM. Cc1cc(OCCCS(C)(=O)=O)cc(C)c1-c1cccc(COc2ccc(C3(CC(=O)O)CN(S(C)(=O)=O)C3)cc2)c1 [Example 94, 2-(3-(4-((2′,6′-Dimethyl-4′-(3-(methylsulfonyl)propoxy)-[1,1′-biphenyl]-3-yl)methoxy)phenyl)-1-(methylsulfonyl)azetidin-3-yl)acetic acid] showed an EC50 greater than 500 nM. For CS(=O)(=O)CCCOc1ccc(-c2cccc(COc3ccc(C4(CC(=O)O)COC4)cc3)c2)c(Cl)c1 [Example 62, 2-(3-(4-((2′-Chloro-4′-(3-(methylsulfonyl)propoxy)-[1,1′-biphenyl]-3-yl)methoxy)phenyl)oxetan-3-yl)acetic acid], the EC50 was less than 100 nM. Cc1cc(OC2CCCC2)cc(C)c1-c1cccc(COc2ccc(C3(CC(=O)O)COC3)cc2)c1 [Example 59, 2-(3-(4-((4′-(Cyclopentyloxy)-2′,6′-dimethyl-[1,1′-biphenyl]-3-yl)methoxy)phenyl)oxetan-3-yl)acetic acid] was tested, and the EC50 was greater than 500 nM. O=C(O)CC1(c2ccc(OCc3ccc(-c4ccccc4)cc3)cc2)COC1 [Example 8, 2-(3-(4-([1,1′-Biphenyl]-4-ylmethoxy)phenyl)oxetan-3-yl)acetic acid] showed an EC50 of 100 to 500 nM. With O=C(O)CC1(c2ccc(OCc3cccc(F)c3)cc2)COC1 [Example 102, 2-(3-(4-((3-Fluorobenzyl)oxy)phenyl)oxetan-3-yl)acetic acid] the EC50 was greater than 500 nM. Work on Cc1cc(OCC2(CO)COC2)cc(C)c1-c1cccc(COc2ccc(C3(CC(=O)O)COC3)cc2)c1 [Example 55, 2-(3-(4-((4′-((3-(Hydroxymethyl)oxetan-3-yl)methoxy)-2′,6′-dimethyl-[1,1′-biphenyl]-3-yl)methoxy)phenyl)oxetan-3-yl)acetic acid] yielded an EC50 of less than 100 nM. For O=C(O)CC1(c2ccc(OCc3cccc(-c4cnc(N5CCOCC5)nc4)c3)cc2)COC1 [Example 108, 2-(3-(4-((3-(2-Morpholinopyrimidin-5-yl)benzyl)oxy)phenyl)oxetan-3-yl)acetic acid], the EC50 was less than 100 nM. In the case of Cc1cc(OCC2CCS(=O)(=O)CC2)cc(C)c1-c1cccc(COc2ccc(C3(CC(=O)O)COC3)cc2)c1 [Example 45, 2-(3-(4-((4′-((1,1-Dioxidotetrahydro-2H-thiopyran-4-yl)methoxy)-2′,6′-dimethyl-[1,1′-biphenyl]-3-yl)methoxy)phenyl)oxetan-3-yl)acetic acid], the EC50 is reported as less than 100 nM. Compound O=C(O)CC1(c2ccc(OCc3cccc(-c4ccc(OCC5CCS(=O)(=O)C5)cc4Cl)c3)cc2)COC1 (centres unmarked) [Example 68, 2-(3-(4-((2′-Chloro-4′-((1,1-dioxidotetrahydrothiophen-3-yl)methoxy)-[1,1′-biphenyl]-3-yl)methoxy)phenyl)oxetan-3-yl)acetic acid] has an EC50 of less than 100 nM. In the case of Cc1cc(OC[C@@H]2CCOC2)cc(C)c1-c1cccc(COc2ccc(C3(CC(=O)O)COC3)cc2)c1 [Example 49, (R)-2-(3-(4-((2′,6′-dimethyl-4′-((tetrahydrofuran-3-yl)methoxy)-[1,1′-biphenyl]-3-yl)methoxy)phenyl)oxetan-3-yl)acetic acid], the EC50 is reported as less than 100 nM. For COc1cncc(-c2cccc(COc3ccc(C4(CC(=O)O)COC4)cc3)c2)c1 [Example 106, 2-(3-(4-((3-(5-Methoxypyridin-3-yl)benzyl)oxy)phenyl)oxetan-3-yl)acetic acid], the EC50 was greater than 500 nM. With Cc1ccc(C(F)(F)F)cc1COc1ccc(C2(CC(=O)O)COC2)cc1 [Example 24] the EC50 was greater than 500 nM. For COc1cc(COc2ccc(C3(CC(=O)O)COC3)cc2)ccc1C(F)(F)F [Example 30, 2-(3-(4-((3-Methoxy-4-(trifluoromethyl)benzyl)oxy)phenyl)oxetan-3-yl)acetic acid], the EC50 was greater than 500 nM.
